Columns and labels:
[1] = test system: Thoracic aorta VSMC from E14 embryos; experiment: Intracellular Ca++ by Fura 2 fluorometry; type: cell-based, chicken; settings: 200 μM Hcy
Description: FIGS. 8A and 8B are graphs illustrating E14 embryonic neural crest-derived response to Hcy. (A) Normal E14 cell response; (B) Ca++ influx is prevented by 15 min pretreatment with NMDA receptor blocker MK801, which acts at the NMDA receptor calcium channel.
The most common signaling device for mitosis is calcium influx. Therefore, the inventors measured the change in intracellular Ca^++ by Fura 2 fluorometry. Thoracic aorta VSMC from E14 embryos were harvested and grown on coverslips using the procedure set forth above. Fura 2 was added during 45 minutes at room temperature. Then the cover slips were placed in a photometer. Fura 2 was excited at 350 and 380 nm with a xenon light source, appropriate monochromators and a chopper (Deltascan, Princeton). Emitted signals passed through a 510±20 band pass filter. When the cells were treated with a solution of 200 μM Hcy, there was a rapid flux of Ca^++ that reached a plateau in about 50 seconds, and remained elevated for the duration of the 500 sec measurement interval as shown in FIGS. 8A and 8B. Similar results have been found with adult rabbit aortic smooth muscle cells, as set forth below.

protein kinase C = experiment: Distribution of protein kinase C activity in N-VSMC fractions; type: cell-based, chicken; settings: 100 μM H[cys] for 60 min
Description: FIGS. 6A-6C show the distribution of protein kinase C in the presence of H[cys], TPA and TGF β1. […] Cells were harvested and separated into cytosol membrane particulate and nuclear fractions, and PKC activity measured as described in Material and Methods. The data are reported as the mean ± standard error of eight separate determinations. (B) Immunolocalization of PKC epsilon in M- and N-VSMC. Cell cultures were plated and grown for three days prior to immunohistochemistry staining of PKC epsilon in the N-VSM (bottom) contrasted with the low levels of expression of the enzyme in M-VSMC (top). The staining can be seen in cytosol, nucleus and associated with intracellular fibers. (C) Use of PKC epsilon IgG to detect enzyme in M- and N-VSMC by western blot. The C-lane represents purified recombinant PKC epsilon; M and N are samples derived from mesoderm (abdominal ) and neurocrest & (thoracic) smooth muscle cells, respectively.
Protein kinase C activity: Protein kinase C activity was determined using a method of a previously published procedure with modifications. Wrenn, R.W. et al. (supra). […] Each of these fractions was analyzed for total PKC activity in the presence and absence of calcium chloride as described previously. […]

SMILES: N[C@@H](CCS)C(=O)O [homocysteine]
- time for Ca++ flux to reach a plateau [1]: about 50 seconds
- distribution of PKC activity (protein kinase C): significant increase in membrane-associated PKC

From patent US6469027B1, “N-methyl-D-aspartate (NMDA) receptor blockers for the prevention of atherosclerosis” (The Board of Regents of the University of Nebraska, priority 1996, dated 2002)
